Source: PubChem BioAssay AID1918957 (Molecular Pharmacology Branch, DTP, NCI, 2023)
Where “and” joins values, the source holds several entries; their conditions need not be identical. Identical values can stand only once.

Test system: NCI-H1876 complex spheroid viability
Assay: Anticancer human tumor NCI-H1876 cell line growth inhibition [LSD1];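 further: spheroids exposed to compounds for one week before readout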;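 on viability, T/C: 100% = DMSO vehicle-treated spheroids so lower means fewer viable cells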
Conditions: for viability, T/C: stronger effect = lower value
Outline: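 Drug combinations with the LSD1 inhibitor iadademstat tested on tumor cells co-cultured as spheroids with endothelial cells and mesenchymal stem cells. Concentrations descended in half-log increments from clinical Cmax or 10 microM.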

[1] = curve of first compound, second compound 0.1 µM
[2] = curve of first compound, second compound 0.316 µM
[3] = curve of first compound, second compound 1 µM
[4] = curve of first compound, second compound 3.16 µM
[5] = curve of first compound, second compound 10 µM
[6] = second compound 0.1 µM, first compound 0.000316 µM
[7] = second compound 0.1 µM, first compound 0.001 µM
[8] = second compound 0.1 µM, first compound 0.00316 µM
[9] = second compound 0.1 µM, first compound 0.01 µM
[10] = second compound 0.1 µM, first compound 0.0316 µM
[11] = second compound 0.1 µM, first compound 0.1 µM
[12] = second compound 0.316 µM, first compound 0.000316 µM
[13] = second compound 0.316 µM, first compound 0.001 µM
[14] = second compound 0.316 µM, first compound 0.00316 µM
[15] = second compound 0.316 µM, first compound 0.01 µM
[16] = second compound 0.316 µM, first compound 0.0316 µM
[17] = second compound 0.316 µM, first compound 0.1 µM
[18] = second compound 1 µM, first compound 0.000316 µM
[19] = second compound 1 µM, first compound 0.001 µM
[20] = second compound 1 µM, first compound 0.00316 µM
[21] = second compound 1 µM, first compound 0.01 µM
[22] = second compound 1 µM, first compound 0.0316 µM
[23] = second compound 1 µM, first compound 0.1 µM
[24] = second compound 3.16 µM, first compound 0.000316 µM
[25] = second compound 3.16 µM, first compound 0.001 µM
[26] = second compound 3.16 µM, first compound 0.00316 µM
[27] = second compound 3.16 µM, first compound 0.01 µM
[28] = second compound 3.16 µM, first compound 0.0316 µM
[29] = second compound 3.16 µM, first compound 0.1 µM
[30] = second compound 10 µM, first compound 0.000316 µM
[31] = second compound 10 µM, first compound 0.001 µM
[32] = second compound 10 µM, first compound 0.00316 µM
[33] = second compound 10 µM, first compound 0.01 µM
[34] = second compound 10 µM, first compound 0.0316 µM
[35] = second compound 10 µM, first compound 0.1 µM

Q: Which IC50 [1] does the source give for `CC(C)CC(NC(=O)C(Cc1ccccc1)NC(=O)c1cnccn1)B(O)O` (centres undefined) + NC1CC1c1ccc(-c2cccc(O)c2)cc1 here?
A: 0.000406 µM

Q: What about the IC50 [2] of the same molecule?
A: 0.000444 µM

Q: And the IC50 [3]?
A: 0.000446 µM

Q: What about the IC50 [4] of the same molecule?
A: 0.000374 µM

Q: And the IC50 [5]?
A: < 0.000316 µM

Q: And the viability, T/C [6]?
A: 63.8%

Q: What about the viability, T/C [7] of the same molecule?
A: 0.34%

Q: And the viability, T/C [8]?
A: 0.19%

Q: What about the viability, T/C [9] of the same molecule?
A: 0.14%

Q: What about the viability, T/C [10] of the same molecule?
A: 0.14%

Q: And the viability, T/C [11]?
A: 0.24%

Q: And the viability, T/C [12]?
A: 70.6%

Q: What about the viability, T/C [13] of the same molecule?
A: 0.44%

Q: What about the viability, T/C [14] of the same molecule?
A: 0.17%

Q: What about the viability, T/C [15] of the same molecule?
A: 0.12%

Q: What about the viability, T/C [16] of the same molecule?
A: 0.15%

Q: And the viability, T/C [17]?
A: 0.21%

Q: And the viability, T/C [18]?
A: 71.2%

Q: What about the viability, T/C [19] of the same molecule?
A: 0.42%

Q: What about the viability, T/C [20] of the same molecule?
A: 0.22%

Q: What about the viability, T/C [21] of the same molecule?
A: 0.31%

Q: And the viability, T/C [22]?
A: 0.13%

Q: And the viability, T/C [23]?
A: 0.22%

Q: And the viability, T/C [24]?
A: 58.4%

Q: And the viability, T/C [25]?
A: 0.35%

Q: What about the viability, T/C [26] of the same molecule?
A: 0.22%

Q: What about the viability, T/C [27] of the same molecule?
A: 0.16%

Q: And the viability, T/C [28]?
A: 0.14%

Q: And the viability, T/C [29]?
A: 0.24%

Q: What about the viability, T/C [30] of the same molecule?
A: 41.6%

Q: And the viability, T/C [31]?
A: 0.43%

Q: And the viability, T/C [32]?
A: 0.48%

Q: And the viability, T/C [33]?
A: 0.28%

Q: What about the viability, T/C [34] of the same molecule?
A: 0.26%

Q: And the viability, T/C [35]?
A: 0.34%

Q: Which viability, T/C (compound 0.00949 µM) does the source give for `NS(=O)(=O)OCC1CC(n2ccc3c(NC4CCc5ccccc54)ncnc32)CC1O` (centres undefined) here?
A: 84.9% and 85.4%

Q: What about the viability, T/C (compound 0.03 µM) of the same molecule?
A: 66.2% and 63.6%

Q: What about the viability, T/C (compound 0.0949 µM) of the same molecule?
A: 56.7% and 51.4%

Q: What about the viability, T/C (compound 0.3 µM) of the same molecule?
A: 43.3% and 49.8%

Q: What about the viability, T/C (compound 0.949 µM) of the same molecule?
A: 39% and 40.2%

Q: What about the viability, T/C (compound 3 µM) of the same molecule?
A: 32.8% and 39%

Q: And the IC50 (curve of compound)?
A: 0.165 µM and 0.15 µM

Q: Which results are given for `Nc1ncn(C2CC(O)C(CO)O2)c(=O)n1` (centres undefined)?
A: viability, T/C (compound 0.00316 µM): 97.2% and 101%; viability, T/C (compound 0.01 µM): 96.9% and 105%; viability, T/C (compound 0.0316 µM): 102% and 103%; viability, T/C (compound 0.1 µM): 97.4% and 97%; viability, T/C (compound 0.316 µM): 86.7% and 106%; viability, T/C (compound 1 µM): 86% and 83.6%; IC50 (curve of compound): > 1 µM

Q: Which results are given for `Cn1ncnc1C1c2n[nH]c(=O)c3cc(F)cc(c23)NC1c1ccc(F)cc1` (centres undefined) + NC1CC1c1ccc(-c2cccc(O)c2)cc1?
A: IC50 [1]: > 0.1 µM; IC50 [2]: > 0.1 µM; IC50 [3]: > 0.1 µM; IC50 [4]: > 0.1 µM; IC50 [5]: > 0.1 µM; viability, T/C [6]: 112%; viability, T/C [7]: 113%; viability, T/C [8]: 111%; viability, T/C [9]: 97.9%; viability, T/C [10]: 92%; viability, T/C [11]: 90%; viability, T/C [12]: 108%; viability, T/C [13]: 106%; viability, T/C [14]: 110%; viability, T/C [15]: 97.4%; viability, T/C [16]: 107%; viability, T/C [17]: 90.1%; viability, T/C [18]: 108%; viability, T/C [19]: 115%; viability, T/C [20]: 108%; viability, T/C [21]: 106%; viability, T/C [22]: 96.2%; viability, T/C [23]: 87.8%; viability, T/C [24]: 109%; viability, T/C [25]: 110%; viability, T/C [26]: 102%; viability, T/C [27]: 104%; viability, T/C [28]: 90.2%; viability, T/C [29]: 92.9%; viability, T/C [30]: 107%; viability, T/C [31]: 102%; viability, T/C [32]: 95.5%; viability, T/C [33]: 96.7%; viability, T/C [34]: 89.7%; viability, T/C [35]: 78.8%
